From US11220689B2, “Modulators of telomere disease” (Children's Medical Center Corporation, priority 2015, dated 2022)

How the values were obtained:
recombinant PAPD5 = recombinant PAPD5 (Homo sapiens, UniProt Q8NDF8); experiment: Inhibition of recombinant PAPD5 by aminoglycosides; type: biochemical; conditions: 10 μM each; FIG. 26
Procedure: FIG. 26 is a graph showing inhibition of recombinant PAPD5 by aminoglycosides.
Experiments were performed to determine whether aminoglycosides can be used to inhibit PAPD5. 10 μM each of the following are used, (1) Kanamycin B sulfate; (2) Apramycin sulfate; (3) Spectinomycin dihydrochloride pentahydrate; and (4) Ribostamycin sulfate.

human PAPD5 = experiment: PAPD5 shRNA knockdown in PARN deficient HEK 293 cells: 3' RACE deep sequencing and Northern blot of TERC; type: cell-based; conditions: Northern blot, normal and PARN deficient HEK 293 cells, FIG. 11G, FIG. 18
From the text: short-hairpin RNA (shRNA) constructs. Duplex oligonucleotides encoding shRNA targeting human PAPD5 (ENA accession: FR872509) or luciferase control (Table 13) were cloned into the pLKO.1-puro vector and pLKO.1-blast vectors (Addgene #10878 and #26655). shRNA constructs targeting human PARN (NM_002582) were as described, e.g., in Moon, Diane H., et al. “Poly (A)-specific ribonuclease (PARN) mediates 3 [prime]-end maturation of the telomerase RNA component.” Nature genetics 47.12 (2015): 1482-1488.
Viral vector production and transduction. […]. Lentiviral particles were produced by co-transfection of HEK 293T cells with lentiviral vectors, pCMV_dR8.91 and pCMV_VSV-G. For knockdown and overexpression experiments, HEK 293 cells, fibroblasts and iPSCs were transduced with viral vectors in the presence of protamine sulfate (10 μg/ml) for 8-12 hours. For TERC and DKC1 experiments, transduced HEK 293 cells and fibroblasts were sorted for mCherry or EGFP expression and cultured without further selection. […]
Formaldehyde/agarose gel electrophoresis. […] Quantification was performed using ImageJ. […]
TERC RNA 3′ ends were profiled as described in e.g., Moon, Diane H., et al. “Poly (A)-specific ribonuclease (PARN) mediates 3 [prime]-end maturation of the telomerase RNA component.” Nature genetics 47.12 (2015): 1482-1488. […] Reads mapping to the TERC gene were analyzed using custom developed Perl scripts.

human TRF4-2 = experiment: Lentiviral shRNA knockdown of TRF4-2 (PAPD5) in fibroblasts and patient-derived cells; type: cell-based
From the text: Short-hairpin RNA (shRNA) constructs. Duplex oligonucleotides encoding shRNA targeting human TRF4-2 (ENA accession number: FR872509) and human PARN (NM_002582) or luciferase control (Table 6) were cloned into the pLKO.1-puro vector (Addgene #10878), and pLKO.1-blast vector (Addgene #26655). Lentiviral vector production and transduction of cells.
Lentiviral vectors encoding shRNAs were produced by co-transfection of 293 cells with lentiviral plasmids described above, pCMV_dR8.91 and pCMV_VSV-G, using branched polyethylenimine (Sigma). Supernatants were harvested, filtered and frozen in aliquots on days 3-4 following transfection. For knockdown experiments, cells were transduced with lentivirus and harvested 6 days after selection in puromycin (2 μg/ml for 293 cells; 0.2 μg/ml for iPS cells) or blasticidin (10 μg/ml for 293 cells).

PARN = experiment: CRISPR/Cas9 genome targeting of PARN in normal (WT) iPSCs, lentiviral gRNA; type: cell-based, human
Procedure: (§1) Experiments were performed to determine the requirement of PARN and PAPD5 for viability and function of human stem cells. CRISPR/Cas9 genome targeting was performed to create biallelic null mutations. Lentiviral vectors containing guide RNAs (gRNAs; Table 15) to PARN or PAPD5 were designed and used to transduce normal (WT) and PARN mutant induced pluripotent stems (iPSCs), and the frequency of insertion/deletions (indels) were assessed. […] Populations of stable lentiviral transduced PARN or PAPD5 targeted iPSCs were subcloned to identify lines with biallelic inactivation of PARN or PAPD5. […] In contrast, iPSCs with indels causing frameshifts in PAPD5 and lacking PAPD5 protein could be isolated (FIG. 23). Inactivation of PAPD5 by CRISPR/Cas9 augmented TERC levels in iPSC clones (FIG. 24).

human PARN = experiment: PARN shRNA knockdown in 293 cells: 3' RACE and deep sequencing of TERC 3' ends; type: cell-based; conditions: versus control shRNA, FIG. 8
Procedure: 600 ng of total RNA was ligated to 5 μM of 5′-adenylated, 3′-blocked adapter (Universal miRNA cloning linker, New England Biolabs, Ipswich, Mass.) with 280 units of T4 RNA ligase truncated KQ (New England Biolabs, Ipswich, Mass.), 25% PEG 8000, and 1 μl RNaseOUT (Life Technologies, Carlsbad, Calif.) in a 20 μl reaction at 25 degrees C. for 16-24 hr. After cleanup with RNA Clean and Concentrator columns (Zymo Research, Irvine, Calif.), followed by DNase treatment, cDNA was synthesized with 5 pmol of universal RT primer and SuperScript III. […] PCR products were directly analyzed run on 2.5% agarose gels to visualize mature and extended TERC transcripts, or subject to Qiaquick PCR purification columns (Qiagen, Hilden, Germany) for library preparation for deep sequencing. […]
RACE products were prepared for deep sequencing using the TruSeq Nano DNA LT Library Prep Kit (Illumina, San Diego, Calif.). […] The quality and quantity of each library was determined on an Advanced Analytical Fragment Analyzer. […] The reads were de-multiplexed with CASAVA 1.8.2 and the read 1 and read 2 fastq files for each sample were generated. For data analysis, the Illumina adapter sequence was first removed from the end of each read using Trimmomatic50. […] The joined-reads from each sample were then mapped to the TERC gene (NR_001566; SEQ ID NO: 99) with the Bowtie2 mapper52, and outputted to a SAM file. […]

PAPD5 = experiment: CRISPR/Cas9 genome targeting of PAPD5 in PARN mutant iPSCs, lentiviral gRNA; type: cell-based, human
Procedure: as §1

recombinant PAPD5, sequence (Q8NDF8 whole entry): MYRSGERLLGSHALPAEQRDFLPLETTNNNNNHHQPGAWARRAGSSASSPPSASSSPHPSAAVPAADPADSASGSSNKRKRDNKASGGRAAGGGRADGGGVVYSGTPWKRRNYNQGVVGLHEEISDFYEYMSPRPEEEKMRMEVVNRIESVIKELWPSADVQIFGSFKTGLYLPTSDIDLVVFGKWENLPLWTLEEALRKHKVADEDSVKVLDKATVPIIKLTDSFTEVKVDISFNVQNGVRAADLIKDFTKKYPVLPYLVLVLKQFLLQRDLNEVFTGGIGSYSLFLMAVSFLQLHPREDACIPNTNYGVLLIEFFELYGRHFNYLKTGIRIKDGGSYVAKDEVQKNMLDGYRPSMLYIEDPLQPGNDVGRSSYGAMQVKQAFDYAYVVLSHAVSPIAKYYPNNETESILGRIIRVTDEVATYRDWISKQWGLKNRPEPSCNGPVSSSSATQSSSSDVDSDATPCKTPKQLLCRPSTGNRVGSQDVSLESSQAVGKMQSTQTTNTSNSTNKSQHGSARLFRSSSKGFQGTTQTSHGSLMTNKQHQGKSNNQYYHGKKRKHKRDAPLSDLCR

NC[C@H]1O[C@H](O[C@H]2[C@H](O)[C@@H](O[C@H]3O[C@H](CO)[C@@H](O)[C@H](N)[C@H]3O)[C@H](N)C[C@@H]2N)[C@H](N)[C@@H](O)[C@@H]1O.O=S(=O)(O)O [Kanamycin B sulfate]
inhibition of PAPD5 (recombinant PAPD5): can inhibit PAPD5

NC[C@H]1O[C@H](O[C@H]2[C@H](O[C@@H]3O[C@H](CO)[C@@H](O)[C@H]3O)[C@@H](O)[C@H](N)C[C@@H]2N)[C@H](N)[C@@H](O)[C@@H]1O.O=S(=O)(O)O [Ribostamycin sulfate]
inhibition of PAPD5 (recombinant PAPD5): can inhibit PAPD5

CN[C@@H]1[C@H](O)[C@H](NC)[C@H]2O[C@@]3(O)C(=O)C[C@@H](C)O[C@H]3O[C@@H]2[C@H]1O.Cl.Cl.O.O.O.O.O [Spectinomycin dihydrochloride pentahydrate]
inhibition of PAPD5 (recombinant PAPD5): can inhibit PAPD5

Apramycin sulfate
inhibition of PAPD5 (recombinant PAPD5): can inhibit PAPD5

PAPD5 shRNA1: lentivirus-encoded shRNA targeting human PAPD5, SEQ ID NO: 83 in Table 13 (CCGGCGATGTTGGAAGGAGTTCATACTCGAGTATGAACTCCTTCCAACATCGTTTTTG)
steady state levels of TERC transcripts (human PAPD5): increased
TERC levels (human TRF4-2): restored the TERC levels
knock-down of PAPD5 (human TRF4-2): knocked-down PAPD5 to significant levels

PAPD5 shRNA2: lentivirus-encoded shRNA targeting human PAPD5, SEQ ID NO: 79 in Table 13 (CCGGGCCACATATAGAGATTGGATACTCGAGTATCCAATCTCTATATGTGGCTTTTTG)
steady state levels of TERC transcripts (human PAPD5): increased
TERC levels (human TRF4-2): restored the TERC levels
knock-down of PAPD5 (human TRF4-2): knocked-down PAPD5 to significant levels

PARN gRNA 91: guide RNA targeting PARN for CRISPR/Cas9, SEQ ID NO: 94 (target + PAM), 95 (guide TGAAGTGTTAGGAGATACAT; listed as DNA, chemistry not given here)
frequency of insertion/deletions (indels) (PARN): high frequency of indels
PARN RNA transcript levels (PARN; qPCR, FIG. 20A): reductions
TERC RNA levels (PARN; qPCR, FIG. 20B): reductions

PARN shRNA1: lentivirus-encoded shRNA directed against PARN (3' untranslated region), SEQ ID NO: 74 (DNA CCGGCCGCACTGTATTTAACTTAATCTCGAGATTAAGTTAAATACAGTGCGGTTTTTG)
levels of mature TERC (human PARN): diminished levels of mature TERC
oligo(A) forms of TERC (human PARN): increased oligo(A) forms

gRNA 451: guide RNA targeting PAPD5 for CRISPR/Cas9, SEQ ID NO: 88 (target + PAM), 89 (guide CCTCTTGTTGCTGCTGCCCG; listed as DNA, chemistry not given here)
frequency of insertion/deletions (indels) (PAPD5; PAPD5 gRNAs): highest frequency of indels
PAPD5 transcript levels (PAPD5; PARN mutant cells, qPCR, FIG. 21A): reductions
TERC RNA levels (PAPD5; PARN mutant cells, qPCR, FIG. 21B): increases
